Where two headings read alike, the source gives them in different places.
Key:
[1] = cited from earlier work
young normal cats = settings: cited from earlier work
CKD cats = test: Effect of mirtazapine on weight, appetite, activity and vomiting in CKD cats; assay type: in vivo, cat; settings: 1.88 mg every other day for three weeks
Source text: FIG. 1. […] FIG. 2. […] FIG. 3. […] FIG. 4.

in vivo = test: in vivo; parameters: species or system cat; settings: for AUC(0-inf) / CL/F / Cmax / Tmax / Vd/F: both sexes
Source text: In this prospective pharmacokinetic study, 6 client-owned stable CKD cats, 2 each from International Renal Interest Society (IRIS) stages II, III and IV, […] and 6 age-matched (within 6 months) healthy geriatric control cats (AMC) were enrolled by stratified convenience sampling. There were 4 spayed females and 2 neutered males in the CKD group and 3 spayed females and 3 neutered males in the AMC group. […] Diagnostic tests required before enrollment included a minimum database consisting of serum biochemistry profile, CBC, urinalysis, urine culture, blood pressure, and serum total thyroxine concentration. […] Exclusion criteria included other systemic illnesses, complications of CKD such as hypertension, pyelonephritis or ureteral obstruction, or decompensation of CKD requiring hospitalization and IV fluid therapy. The project was approved by the Institutional Animal Care and Use Committee at Colorado State University, and all owners gave written informed consent before participation. […] Samples were centrifuged within 10 minutes of collection and serum was harvested and stored at —80° C. until analysis. […] Pharmacokinetic analysis was performed using a non-compartmental method. Area under the curve to infinity (AUC∞), disappearance half-life (t½^λ), time to maximum serum concentration (Tmax), and maximum serum concentration (Cmax) were calculated. […] The terminal elimination rate was used for estimating the accumulation factor as the applicable kel, and the dosing interval (T) was set at 24 or 48 hours. Comparison of pharmacokinetic parameters between the CKD and AMC cat groups was performed using a Mann-Whitney U-test. Prism software© was used for all analyses.

[2] = humans; cited from earlier work
[3] = Stability of compounded 1.88 mg mirtazapine capsules (LC/MS/MS); assay type: physicochemical; settings: compounded 1.88 mg capsules
Source text: The method used is guaranteed to produce accurate compounding to within 10% of the target dose.

cats = settings: cited from earlier work

## CN1CCN2c3ncccc3Cc3ccccc3C2C1 (stereo not shown) [mirtazapine]
[1]; normal cats, previously reported
  mean AUC: 397 ng/mL/h
[1]; young healthy cats
  mean CL/F: 18.3 mL/min/kg
Young normal cats; 1.88 mg/cat
  food consumption as compared to placebo: increased food consumption
Young normal cats; 3.75 mg/cat
  food consumption as compared to placebo: increased food consumption
Young normal cats; dose of 1.88 mg
  appetite stimulation: significantly stimulates appetite
CKD cats; p=0.002
  Effect on weight: statistically significant increase
CKD cats; p=0.02
  Effect on activity: statistically significant increase
  Effect on appetite score: statistically significant increase
CKD cats; p=0.047
  Effect on vomiting: statistically significant decrease
In vivo
  difference in AUC∞ between AMC cats and CKD cats: statistically significant difference
In vivo; po, 1.88 mg, Mean ± SD
  AUC(0-inf): 590 ± 185 ng·h/mL
  CL/F: 13.2 mL/min/kg
  Cmax: 79.6 ± 21.7 ng/mL
  Tmax: 2 ± 1.5 h
  Vd/F: 13.9 ± 3.2 L
In vivo; po, 1.88 mg, Median
  AUC(0-inf): 561 ng·h/mL
  CL/F: 12.2 mL/min/kg
  Cmax: 83.6 ng/mL
  Tmax: 1 h
  Vd/F: 14.4 L
In vivo; both, po, 1.88 mg
  CL/F, Mean ± SD: 10.2 mL/min/kg
  CL/F, Median: 10 mL/min/kg
  Cmax, Mean ± SD: 110.6 ± 30.8 ng/mL
  Cmax, Median: 109.5 ng/mL
In vivo; po, 1.88 mg
  AUC∞, Mean ± SD: 866.5 ± 257.9 ng·h/mL
  AUC∞, Median: 828.4 ng·h/mL
  Vd/F, Mean ± SD: 13.6 ± 2.0 L
  Vd/F, Median: 13.4 L
[2]
  AUC in young men compared to women: lower
[3]
  stability as formulated: at least 6 months
cats
  other reported adverse effects (hyperexcitability, muscle tremors): mild and dose dependent

— patent US20130274247A1 (priority 2012, published 2013)
